The test system of one assay is HCV replicon genotype 1a. Description: HCV replicon assay, genotype 1a (cell ELISA for NS3/4A). In kind it is cell-based, hepatitis C virus. A digest of the protocol:
(§1)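 Readout is NS3/4A protein level from an antibody-based cell ELISA, serving as an indirect measure of replicon RNA; IC50 fitted with a four-parameter function relative to DMSO control. Replicon cells, kept under G418 beforehand, were plated with serial compound dilutions minus G418 for 96 hours.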

The next assay concerns HCV replicon genotype 1b. In words: HCV replicon assay, genotype 1b (cell ELISA for NS3/4A). In kind it is cell-based, hepatitis C virus. An outline of the steps:
as §1
In general terms: Replicon systems follow genome replication, usually without infectious particles.

The mark [1] stands for this setting: read-out: 1a IC50, HCV genotype 1a replicon cells, 96 hours incubation, NS3/4A ELISA readout, % of DMSO control.
Where [2] appears, read: read-out: 1b IC50, HCV genotype 1b replicon cells, 96 hours incubation, NS3/4A ELISA readout, % of DMSO control.
[3] abbreviates: Hepatitis C virus, 96 h, read-out: 1a IC50 (nM), HCV genotype 1a replicon cells, 96 hours incubation, NS3/4A ELISA readout, % of DMSO control.
The mark [4] stands for this setting: Hepatitis C virus, 96 h, read-out: 1b IC50 (nM), HCV genotype 1b replicon cells, 96 hours incubation, NS3/4A ELISA readout, % of DMSO control.

Like-named read-outs stand apart in the source and are kept apart here.

For the molecule `CNC(=O)c1c(-c2ccc(F)cc2)oc2cc(N(C)S(C)(=O)=O)c([C@@H]3CCCN(C(=O)c4nc5ccccc5n4C)C3)cc12` (single isomer, unassigned) [Example 24, 2-(4-fluorophenyl)-N-methyl-5-(1-(1-methyl-1H-benzo[d]imidazole-2-carbonyl)piperidin-3-yl)-6-(N-methylmethylsulfonamido)benzofuran-3-carboxamide], the IC50 in the assay with HCV replicon genotype 1a (setting [1]) was 32.7 nM; in the assay with HCV replicon genotype 1b (setting [2]) it was 40.5 nM.
As for `CNC(=O)c1c(-c2ccc(F)cc2)oc2cc(N(C)S(C)(=O)=O)c([C@@H]3CCCN(C(=O)c4nc5ncccc5[nH]4)C3)cc12` [Example 35, (S)-5-(1-(1H-imidazo[4,5-b]pyridine-2-carbonyl)piperidin-3-yl)-2-(4-fluorophenyl)-N-methyl-6-(N-methylmethylsulfonamido)benzofuran-3-carboxamide], the IC50 in the assay on HCV replicon genotype 1a (setting [3]) came out at 71.6 nM; with HCV replicon genotype 1b (setting [4]), 48.9 nM.
Regarding `CNC(=O)c1c(-c2ccc(F)cc2)oc2cc(N(C)S(C)(=O)=O)c([C@H]3CCCN(S(=O)(=O)c4c(Cl)nc5sccn45)C3)cc12` [Example 133, 5-{(3R)-1-[(6-chloroimidazo[2,1-b][1,3]thiazol-5-yl)sulfonyl]piperidin-3-yl}-2-(4-fluorophenyl)-N-methyl-6-[methyl(methylsulfonyl)amino]-1-benzofuran-3-carboxamide], the IC50 in the assay with HCV replicon genotype 1a (setting [3]) is 106 nM; in the assay on HCV replicon genotype 1b (setting [4]), 74.7 nM.
As to `CNC(=O)c1c(-c2ccc(F)cc2)oc2cc(N(C)S(C)(=O)=O)c([C@@H]3CCCN(C(=O)Cc4ccc(F)cn4)C3)cc12` (stereo in doubt) [Example 70, 2-(4-fluorophenyl)-5-{1-[(5-fluoropyridin-2-yl)acetyl]piperidin-3-yl}-N-methyl-6-[methyl(methylsulfonyl)amino]-1-benzofuran-3-carboxamide], the IC50 with HCV replicon genotype 1a (setting [3]) was determined as 207 nM; in the assay with HCV replicon genotype 1b (setting [4]), 67.9 nM.
For the molecule `CNC(=O)c1c(-c2ccc(F)cc2)oc2cc(N(C)S(C)(=O)=O)c([C@@H]3CCCN(S(=O)(=O)Cc4cccnc4)C3)cc12` [Example 110, 2-(4-fluorophenyl)-N-methyl-6-[methyl(methylsulfonyl)amino]-5-{(3S)-1-[(pyridin-3-ylmethyl)sulfonyl]piperidin-3-yl}-1-benzofuran-3-carboxamide], the values for the IC50 with HCV replicon genotype 1a (setting [3]) and with HCV replicon genotype 1b (setting [4]) were 164 nM and 38.4 nM, respectively.
On to `CNC(=O)c1c(-c2ccc(F)cc2)oc2cc(N(C)S(C)(=O)=O)c([C@H]3CCCN(S(=O)(=O)c4ccccc4)C3)cc12` [Example 134, 2-(4-fluorophenyl)-N-methyl-6-[methyl(methylsulfonyl)amino]-5-[(3R)-1-(phenylsulfonyl)piperidin-3-yl]-1-benzofuran-3-carboxamide], for which the IC50 with HCV replicon genotype 1a (setting [3]) is 85.9 nM; with HCV replicon genotype 1b (setting [4]) it was 58.3 nM.
As to `CNC(=O)c1c(-c2ccc(F)cc2)oc2cc(N(C)S(C)(=O)=O)c([C@H]3CCCN(S(=O)(=O)c4cccc(C)c4)C3)cc12` [Example 142, 2-(4-fluorophenyl)-N-methyl-6-[methyl(methylsulfonyl)amino]-5-{(3R)-1-[(3-methylphenyl)sulfonyl]piperidin-3-yl}-1-benzofuran-3-carboxamide], the figures for the IC50 in the assay on HCV replicon genotype 1a (setting [3]) and in the assay with HCV replicon genotype 1b (setting [4]) were 198 nM and 91.7 nM, respectively.
Regarding `CNC(=O)c1c(-c2ccc(F)cc2)oc2cc(N(C)S(C)(=O)=O)c([C@H]3CCCN(C(=O)Cc4ccc5nccnc5c4)C3)cc12` [Example 95, 2-(4-fluorophenyl)-N-methyl-6-[methyl(methylsulfonyl)amino]-5-[(3R)-1-(quinoxalin-6-ylacetyl)piperidin-3-yl]-1-benzofuran-3-carboxamide], the IC50 with HCV replicon genotype 1a (setting [3]) was determined as 176 nM; with HCV replicon genotype 1b (setting [4]), 106 nM.
On the same counts, the results for `CNC(=O)c1c(-c2ccc(F)cc2)oc2cc(N(C)S(C)(=O)=O)c([C@H]3CCCN(C(=O)c4n[nH]c5cc(Br)ccc45)C3)cc12` [Example 99, 5-{(3R)-1-[(6-bromo-1H-indazol-3-yl)carbonyl]piperidin-3-yl}-2-(4-fluorophenyl)-N-methyl-6-[methyl(methylsulfonyl)amino]-1-benzofuran-3-carboxamide] are 137 nM and 66.7 nM.
For the molecule `CNC(=O)c1c(-c2ccc(F)cc2)oc2cc(N(C)S(C)(=O)=O)c(C3CC(c4nc5c(F)cccc5o4)CN(C)C3)cc12` (centres unmarked) [Example 1, 5-(5-(4-fluorobenzo[d]oxazol-2-yl)-1-methylpiperidin-3-yl)-2-(4-fluorophenyl)-N-methyl-6-(N-methylmethylsulfonamido)benzofuran-3-carboxamide], the IC50 stood at 56.9 nM with HCV replicon genotype 1a (setting [3]) and 34.3 nM in the assay on HCV replicon genotype 1b (setting [4]).
For `CNC(=O)c1c(-c2ccc(F)cc2)oc2cc(N(C)S(C)(=O)=O)c(C3CCCN(C(=O)[C@H](NC(=O)OC(C)(C)C)c4ccccc4F)C3)cc12` (single isomer, unassigned) [Example 27], the IC50 in the assay on HCV replicon genotype 1a (setting [3]) amounted to 44.4 nM; in the assay on HCV replicon genotype 1b (setting [4]), 35.2 nM.
As to `CNC(=O)c1c(-c2ccc(F)cc2)oc2cc(N(C)S(C)(=O)=O)c([C@@H]3CCCN(C(=O)[C@H](N)c4ccccc4F)C3)cc12` (single isomer, unassigned) [Example 30], the results for the IC50 with HCV replicon genotype 1a (setting [1]) and in the assay with HCV replicon genotype 1b (setting [2]) were 122 nM and 215 nM, respectively.
Turning to `CNC(=O)c1c(-c2ccc(F)cc2)oc2cc(N(C)S(C)(=O)=O)c([C@@H]3CCCN(C(=O)c4cc5ccccc5n4C)C3)cc12` [Example 67, 2-(4-fluorophenyl)-N-methyl-5-{1-[(1-methyl-1H-indol-2-yl)carbonyl]piperidin-3-yl}-6-[methyl(methylsulfonyl)amino]-1-benzofuran-3-carboxamide], the IC50 with HCV replicon genotype 1a (setting [3]) worked out at 156 nM; in the assay on HCV replicon genotype 1b (setting [4]), 87.4 nM.
For the molecule `CNC(=O)c1c(-c2ccc(F)cc2)oc2cc(N(C)S(C)(=O)=O)c([C@H]3CCCN(S(=O)(=O)C4CCCC4)C3)cc12` [Example 135, 5-[(3R)-1-(cyclopentylsulfonyl)piperidin-3-yl]-2-(4-fluorophenyl)-N-methyl-6-[methyl(methylsulfonyl)amino]-1-benzofuran-3-carboxamide], the figures for the IC50 in the assay on HCV replicon genotype 1a (setting [3]) and in the assay on HCV replicon genotype 1b (setting [4]) were 80.4 nM and 45.6 nM, respectively.
Consider `CNC(=O)c1c(-c2ccc(F)cc2)oc2cc(N(C)S(C)(=O)=O)c([C@@H]3CCCN(S(=O)(=O)c4cccc(C)c4)C3)cc12` [Example 126, 2-(4-fluorophenyl)-N-methyl-6-[methyl(methylsulfonyl)amino]-5-{(3S)-1-[(3-methylphenyl)sulfonyl]piperidin-3-yl}-1-benzofuran-3-carboxamide], for which the IC50 came out at 46.9 nM in the assay on HCV replicon genotype 1a (setting [3]) and 13.2 nM in the assay with HCV replicon genotype 1b (setting [4]).
On the same counts, the results for `CNC(=O)c1c(-c2ccc(F)cc2)oc2cc(N(C)S(C)(=O)=O)c([C@H]3CCCN(C(=O)c4nc5ccccc5[nH]4)C3)cc12` [Example 87, 5-[(3R)-1-(1H-benzimidazol-2-ylcarbonyl)piperidin-3-yl]-2-(4-fluorophenyl)-N-methyl-6-[methyl(methylsulfonyl)amino]-1-benzofuran-3-carboxamide] are 267 nM and 112 nM.
Take `CNC(=O)c1c(-c2ccc(F)cc2)oc2cc(N(C)S(C)(=O)=O)c([C@@H]3CCCN(S(=O)(=O)Cc4ccncc4)C3)cc12` [Example 109, 2-(4-fluorophenyl)-N-methyl-6-[methyl(methylsulfonyl)amino]-5-{(3S)-1-[(pyridin-4-ylmethyl)sulfonyl]piperidin-3-yl}-1-benzofuran-3-carboxamide]: the IC50 in the assay with HCV replicon genotype 1a (setting [3]) came to 104 nM; with HCV replicon genotype 1b (setting [4]), 26.2 nM.
Turning to `CNC(=O)c1c(-c2ccc(F)cc2)oc2cc(N(C)S(C)(=O)=O)c([C@@H]3CCCN(c4ncc(-c5ccc(F)cc5)o4)C3)cc12` (single isomer, unassigned) [Example 57, 2-(4-fluorophenyl)-5-(1-(5-(4-fluorophenyl)oxazol-2-yl)piperidin-3-yl)-N-methyl-6-(N-methylmethylsulfonamido)benzofuran-3-carboxamide], the IC50 was determined as 19.9 nM with HCV replicon genotype 1a (setting [1]) and 22.2 nM in the assay on HCV replicon genotype 1b (setting [4]).
Take `CCn1c(C(=O)N2CCC[C@H](c3cc4c(C(=O)NC)c(-c5ccc(F)cc5)oc4cc3N(C)S(C)(=O)=O)C2)cc2c(F)cccc21` [Example 34, (R)-5-(1-(1-ethyl-4-fluoro-1H-indole-2-carbonyl)piperidin-3-yl)-2-(4-fluorophenyl)-N-methyl-6-(N-methylmethylsulfonamido)benzofuran-3-carboxamide]: the IC50 with HCV replicon genotype 1a (setting [3]) amounted to 84.1 nM; in the assay with HCV replicon genotype 1b (setting [4]) it was 65.3 nM.
On the same counts, the results for `CNC(=O)c1c(-c2ccc(F)cc2)oc2cc(N(C)S(C)(=O)=O)c([C@H]3CCCN(C(=O)c4cn5c(Cl)cccc5n4)C3)cc12` [Example 107, 5-{(3R)-1-[(5-chloroimidazo[1,2-a]pyridin-2-yl)carbonyl]piperidin-3-yl}-2-(4-fluorophenyl)-N-methyl-6-[methyl(methylsulfonyl)amino]-1-benzofuran-3-carboxamide] are 389 nM and 116 nM.
Consider `CNC(=O)c1c(-c2ccc(F)cc2)oc2cc(N(C)S(C)(=O)=O)c([C@@H]3CCCN(S(=O)(=O)c4ccc5ncsc5c4)C3)cc12` [Example 112, 5-[(3S)-1-(1,3-benzothiazol-6-ylsulfonyl)piperidin-3-yl]-2-(4-fluorophenyl)-N-methyl-6-[methyl(methylsulfonyl)amino]-1-benzofuran-3-carboxamide], for which the IC50 in the assay with HCV replicon genotype 1a (setting [3]) was 25 nM; in the assay with HCV replicon genotype 1b (setting [4]) it was 6.79 nM.
With `CNC(=O)c1c(-c2ccc(F)cc2)oc2cc(N(C)S(C)(=O)=O)c([C@H]3CCCN(S(=O)(=O)CCc4ccccc4)C3)cc12` [Example 141, 2-(4-fluorophenyl)-N-methyl-6-[methyl(methylsulfonyl)amino]-5-{(3R)-1-[(2-phenylethyl)sulfonyl]piperidin-3-yl}-1-benzofuran-3-carboxamide], the IC50 amounted to 10.6 nM with HCV replicon genotype 1a (setting [3]) and 14.2 nM in the assay with HCV replicon genotype 1b (setting [4]).

For the origin of these results see US9549921B2, “Heterocyclic compounds and methods of use thereof for the treatment of hepatitis C” (priority 2014, dated 2017).
